Results taken from patent publication US20240358693A1, “METHODS OF TREATING PAIN” (Aisa Pharma, Inc., priority 2023, published 2024).

System: participants with SSc-RP
Experiment: Scleroderma Health Assessment Questionnaire (SHAQ): disability indices and visual analog scales
Format: in vivo, human
Description: The standard, validated, patient reported outcome measures tool for SSc patients, the Scleroderma Health Assessment Questionnaire (SHAQ), will be used to assess the participant qualify of life. Details are attached in the Appendix. The participant quality of life will be scored, and a disability index calculated for each questionnaire completed by the patient at Screening and each in-clinic visit. The absolute change in participant quality of life from baseline to the end of each dosing period will be calculated similar to frequency data as before.
The SHAQ includes a Raynaud's VAS, which will be reported at screening and each in-clinic visit. The absolute change in Raynaud-VAS, assessed by the participants response to the SHAQ question ‘In the past 7 days, how much have your Raynaud's interfered with your daily activities?’ at baseline and the end of each dosing period will be calculated similar to frequency data as before.
The SHAQ is used to calculate a Disability Index to assess the participant qualify of life. The eight categories assessed by the Disability Index are 1) dressing and grooming, 2) arising, 3) eating, 4) walking, 5) hygiene, 6) reach, 7) grip, and 8) common daily activities. For each of these categories, patients report the amount of difficulty they have in performing two or three specific activities.
There are four possible responses for the Disability Index questions: • Without any difficulty=0 • With some difficulty=1 • With much difficulty=2 • Unable to do=3. • The highest score reported by the patient for any component question of the eight categories determines the score for that category. • If a component question is left blank or the response is too ambiguous to assign a score, then the score for that category is determined by the remaining completed question(s). • If all component questions are blank or if more than one answer is given, then follow up with the respondent is required. • If the respondent's mark is between the response columns, then move it to the closest one. If it's directly between the two, move it to the higher one.
Each of the disability items on the SHAQ has a companion aids/devices variable that is used to record what type(s) of assistance, if any, the participant uses for his/her usual activities. These variables (see below) are coded as follows: • 0=No assistance is needed. • 1=A special device is used by the patient in his/her usual activities. • 2=The patient usually needs help from another person. • 3=The patient usually needs BOTH a special device AND help from another person.
The scoring variables and scoring rules permit the computation of two disability indices, the Standard Disability Index and the Alternative Disability Index.
This question results in a new set of category scores that are computed by adjusting the score for each category, if necessary, based on the patient's use of an aid or device or assistance for that category. If either devices and/or help from another person are checked for a category, the score is set to “2”, unless the score is already “3” (i.e., scores of “0” or “1” are increased to “2”). For example, if the highest score for the dressing category is “1”, and the patient says they use a device for dressing, the computed category score would be “2”. The sum of the computed categories scores is then calculated and divided by the number of categories answered. This gives a score in the 0 to 3 range.
The aid and device variables are not used to calculate the alternative disability index; it is calculated by adding the scores for each of the categories and dividing by the number of categories answered. This gives a score in the 0 to 3 range.
The standard, validated, patient reported outcome measures tool for SSc patients, the SHAQ, was collected at the time points specified in the study schedules (FIG. 2 and FIGS. 4A and 4B) to assess the participant's quality of life. The SHAQ included a Raynaud's VAS that will also be reported separately.

[1] = Cilnidipine 20 mg, PP Population Part A, SSc patients
[2] = Day 12, Cilnidipine 10 mg (N = 4), Patients with Diagnosis of SSc, PP Population Part A
[3] = Day 12, Cilnidipine 20 mg (N = 4), Patients with Diagnosis of SSc, PP Population Part A
[4] = Day 12, Modified ITT, Part A, dose Cilnidipine 10 mg, Tadalafil 5 mg, or 10 mg + 5 mg
[5] = Day 12, Modified ITT, Part A, dose Cilnidipine 20 mg, or 20 mg + Tadalafil 5 mg

COCCOC(=O)C1=C(C)NC(C)=C(C(=O)OC/C=C/c2ccccc2)C1c1cccc([N+](=O)[O-])c1 (stereo not shown) [Cilnidipine, cilnidipine]
SHAQ Visual Analogue Scale - Finger Ulcers, In-Clinic Visit (Day 12), Mean [1]: 0.650
SHAQ Visual Analogue Scale - Finger Ulcers, In-Clinic Visit (Day 12), Median [1]: 0.350
SHAQ Visual Analogue Scale - Intestinal Problems, In-Clinic Visit (Day 12), Mean [1]: 0.850
SHAQ Visual Analogue Scale - Intestinal Problems, In-Clinic Visit (Day 12), Median [1]: 0.650
SHAQ Visual Analogue Scale - Overall Disease Severity, In-Clinic Visit (Day 12), Mean [1]: 1.125
SHAQ Visual Analogue Scale - Overall Disease Severity, In-Clinic Visit (Day 12), Median [1]: 1.300
SHAQ Visual Analogue Scale - Pain, In-Clinic Visit (Day 12), Mean [1]: 1.875
SHAQ Visual Analogue Scale - Pain, In-Clinic Visit (Day 12), Median [1]: 1.400
SHAQ Visual Analogue Scale - Raynaud's, In-Clinic Visit (Day 12), Mean [1]: 1.875
SHAQ Visual Analogue Scale - Raynaud's, In-Clinic Visit (Day 12), Median [1]: 1.250
SHAQ Alternative Disability Index, Change from Baseline, Mean [2]: 0.063
SHAQ Alternative Disability Index, Change from Baseline, Median [2]: 0.000
SHAQ Alternative Disability Index, Percent Change from Baseline, Mean [2]: 15.87%
SHAQ Alternative Disability Index, Percent Change from Baseline, Median [2]: 15.87%
SHAQ Standard Disability Index, Change from Baseline, Mean [2]: 0.000
SHAQ Standard Disability Index, Change from Baseline, Median [2]: 0.000
SHAQ Standard Disability Index, Percent Change from Baseline, Mean [2]: 0.00%
SHAQ Standard Disability Index, Percent Change from Baseline, Median [2]: 0.00%
SHAQ Alternative Disability Index, Change from Baseline, Mean [3]: 0.000
SHAQ Alternative Disability Index, Change from Baseline, Median [3]: −0.063
SHAQ Alternative Disability Index, Percent Change from Baseline, Mean [3]: 5.56%
SHAQ Alternative Disability Index, Percent Change from Baseline, Median [3]: −33.33%
SHAQ Standard Disability Index, Change from Baseline, Mean [3]: −0.063
SHAQ Standard Disability Index, Change from Baseline, Median [3]: −0.063
SHAQ Standard Disability Index, Percent Change from Baseline, Mean [3]: −26.67%
SHAQ Standard Disability Index, Percent Change from Baseline, Median [3]: −33.33%
SHAQ Alternative Disability Index, Change from Baseline, Mean [4]: 0.063
SHAQ Alternative Disability Index, Change from Baseline, Median [4]: 0.000
SHAQ Alternative Disability Index, Percent Change from Baseline, Mean [4]: 15.87%
SHAQ Alternative Disability Index, Percent Change from Baseline, Median [4]: 15.87%
SHAQ Finger Ulcers, Change from Baseline, Mean [4]: −0.425
SHAQ Finger Ulcers, Change from Baseline, Median [4]: −0.350
SHAQ Finger Ulcers, Percent Change from Baseline, Mean [4]: −69.44%
SHAQ Finger Ulcers, Percent Change from Baseline, Median [4]: −69.44%
SHAQ Standard Disability Index, Change from Baseline, Mean [4]: 0.0
SHAQ Standard Disability Index, Change from Baseline, Median [4]: 0.000
SHAQ Standard Disability Index, Percent Change from Baseline, Mean [4]: 0.0%
SHAQ Standard Disability Index, Percent Change from Baseline, Median [4]: 0.00%
SHAQ Visual Analog Scale-Breathing Problems, Change from Baseline, Mean [4]: −0.300
SHAQ Visual Analog Scale-Breathing Problems, Change from Baseline, Median [4]: 0.000
SHAQ Visual Analog Scale-Breathing Problems, Percent Change from Baseline, Mean [4]: −16.00%
SHAQ Visual Analog Scale-Breathing Problems, Percent Change from Baseline, Median [4]: −16.00%
SHAQ Visual Analog Scale-Intestinal Problems, Change from Baseline, Mean [4]: −1.875
SHAQ Visual Analog Scale-Intestinal Problems, Change from Baseline, Median [4]: −1.550
SHAQ Visual Analog Scale-Intestinal Problems, Percent Change from Baseline, Mean [4]: −77.37%
SHAQ Visual Analog Scale-Intestinal Problems, Percent Change from Baseline, Median [4]: −88.00%
SHAQ Visual Analog Scale-Pain, Change from Baseline, Mean [4]: −0.100
SHAQ Visual Analog Scale-Pain, Change from Baseline, Median [4]: 0.000
SHAQ Visual Analog Scale-Pain, Percent Change from Baseline, Mean [4]: −9.88%
SHAQ Visual Analog Scale-Pain, Percent Change from Baseline, Median [4]: 0.00%
SHAQ Visual Analog Scale-Raynaud's, Change from Baseline, Mean [4]: 0.325
SHAQ Visual Analog Scale-Raynaud's, Change from Baseline, Median [4]: 0.350
SHAQ Visual Analog Scale-Raynaud's, Percent Change from Baseline, Mean [4]: 11.36%
SHAQ Visual Analog Scale-Raynaud's, Percent Change from Baseline, Median [4]: −2.27%
SHAQ Alternative Disability Index, Change from Baseline, Mean [5]: −0.083
SHAQ Alternative Disability Index, Change from Baseline, Median [5]: −0.125
SHAQ Alternative Disability Index, Percent Change from Baseline, Mean [5]: −41.67%
SHAQ Alternative Disability Index, Percent Change from Baseline, Median [5]: −41.67%
SHAQ Finger Ulcers, Change from Baseline, Mean [5]: −0.933
SHAQ Finger Ulcers, Change from Baseline, Median [5]: 0.000
SHAQ Finger Ulcers, Percent Change from Baseline, Mean [5]: 35.29%
